Format in all cases: ADME
Data set [1] can be described thus: Acid dissociation constant was determined.
Data set [2] can be described thus: log K1 value of the compound.
Data set [3] in a line: log K2 value of the compound.
Data set [4] is described as follows: log K3 value of the compound.

Molecules are shown by their SMILES.

For `O=C(O)CCn1ccc(=O)c(O)c1`, the pKa came to 2.92 in data set [1] (read-out: pKa1) and 8.91 in data set [1] (read-out: pKa2). The “Log K1” value in data set [2] is 9.48. In addition, the “Log K2” value in data set [3] is 7.48.

As to `Cc1c(O)c(=O)ccn1C` [DEFERIPRONE], the figures for the pKa in data set [1] (read-out: pKa1) and in data set [1] (read-out: pKa2) were 3.84 and 9.86, respectively. The “Log K1” value in data set [2] amounted to 11.48. Further, the “Log K2” value in data set [3] stood at 10.22. In data set [4], the “Log K3” value came out at 5.64.

`CCn1ccc(=O)c(O)c1C`: the pKa in data set [1] (read-out: pKa1) was 3.79; in data set [1] (read-out: pKa2), 9.79.

Turning to `Cn1ccc(=O)c(O)c1`, the pKa in data set [1] (read-out: pKa1) was determined as 3.35; in data set [1] (read-out: pKa2), 8.8. Also, in data set [2], the “Log K1” value was found to be 9.35. Moreover, the “Log K2” value in data set [3] was determined as 7.58.

`CCc1c(O)c(=O)ccn1CC`: the figures for the pKa in data set [1] (read-out: pKa1) and in data set [1] (read-out: pKa2) were 3.93 and 10.1, respectively. In data set [2], the “Log K1” value was determined as 13.18. Also, the “Log K2” value in data set [3] stood at 7.03. In addition, the “Log K3” value in data set [4] is reported as 2.65.

For the molecule `Oc1ccncc1O`, the pKa in data set [1] (read-out: pKa1) came to 3.36. In addition, the “Log K1” value in data set [2] turned out to be 9.49. In addition, the “Log K2” value in data set [3] came out at 7.64.

For `CCc1c(O)c(=O)ccn1C`, the pKa in data set [1] (read-out: pKa1) stood at 3.74; in data set [1] (read-out: pKa2), 9.7.
